Data as given in patent US11608501B2, “Methods for modifying RNA splicing” (PTC THERAPEUTICS, INC., priority 2017, dated 2023).

Assays:
[1] = system: RNA having an intronic REMS sequence; test: RNA sequencing of compound-treated cells: iExon inclusion or eExon formation (ΔPSI, Fisher's Exact Test); assay type: cell-based; settings: cells treated with Compound 64 (24 nm and 100 nm); genes listed in Table 10; adjusted Fisher's Exact Test p value
Method: Techniques known to one skilled in the art may be used to determine the amount of an RNA transcript(s). In some aspects, the amount of one, two, three or more RNA transcripts is measured using deep sequencing, such as ILLUMINA® RNASeq, ILLUMINA® next generation sequencing (NGS), ION TORRENT® RNA next generation sequencing, 454™ pyrosequencing, or Sequencing by Oligo Ligation Detection (SOLID™), Single Molecule, Real-Time (SMRT) sequencing, Nanopore sequencing. In other aspects, the amount of multiple RNA transcripts is measured using an exon array, such as the GENECHIP® human exon array. In certain aspects, the amount of one, two, three or more RNA transcripts is determined by RT-PCR. In other aspects, the amount of one, two, three or more RNA transcripts is measured by RT-qPCR or digital color-coded barcode technology. Techniques for conducting these assays are known to one skilled in the art. […]
Where “U” represents the value for probability of iExon inclusion (a+b)/2/[(a+b)/2+c] in the absence of the compound; and, where “C” represents the value for probability of iExon inclusion (a+b)/2/[(a+b)/2+c] in the presence of the compound. The values for “a” and “b” represent the number of reads supporting inclusion of an iExon in an RNA transcript. […] The value for “c” represents the number of reads supporting exclusion of an iExon. […]

SH-SY5Y cells = test: Endpoint RT-PCR of alternatively spliced mRNAs (iExon inclusion) in cultured cells; assay type: cell-based, human; settings: cells treated at 10 nM, 1 μM or 10 μM vs DMSO; genes of FIGS. 2A-6A
Method: SH-SY5Y cells derived from a bone marrow biopsy of a patient with neuroblastoma were plated at 600,000 cells/well in 2 mL DMEM with 10% FBS in 6-well plates, and incubated for 4 hours in a cell culture incubator (37° C., 5% CO2, 100% relative humidity). Cells were then treated with Compound 64 at different concentrations (in 0.1% DMSO) for 24 hours. After removal of the supernatant, cells were lysed in RLT buffer with ß-mercaptoethanol and total RNA was extracted according to the manufacturer's protocol (RNeasy Mini Kit, Qiagen, Inc.).
One-step RT-PCR was performed using AgPath-ID™ One-Step RT-PCR Reagents (Life Technologies, Inc.) using 50 ng total RNA as input. The following PCR conditions were used: Step 1: 48° C. (15 min), Step 2: 95° C. (10 min), Step 3: 95° C. (30 sec), Step 4: 55° C. (30 sec), Step 5: 68° C. (1 min), repeat Steps 3 to 5 for 34 cycles, then hold at 4° C. The presence of iExons within alternatively spliced mRNAs was identified using primers listed in Tables 13 through 19, which correspond to FIGS. 2, 3, 4 and 5. PCR products were separated on 2% agarose E-gels (Life Technologies, Inc.), stained with ethidium bromide and visualized using a gel imager (UVP). […]

SMILES: CC1(C)CC(Oc2ccc(-c3ccc(-c4cn[nH]c4)cc3O)nn2)CC(C)(C)N1 [Compound 64, 5-(1H-pyrazol-4-yl)-2-(6-((2,2,6,6-tetramethylpiperidin-4-yl)oxy)pyridazin-3-yl)phenol]
- effect on inclusion of an iExon or formation of an eExon with a corresponding change in isoform abundance [1]: statistically significant
- iExon-containing PCR product on agarose gel (SH-SY5Y cells): appearance of a slower migrating PCR product containing the intronic-derived exon
